In series [1] the target is Lysine-specific histone demethylase 1A (Homo sapiens, UniProt O60341). The series can be described thus: Inhibition of full length recombinant LSD1 (unknown origin) expressed in Escherichia coli BL21(DE3) using H3K4me2 as substrate after 30 mins in presence of FAD by amplex red reagent based fluorescence assay.
Series [2] addresses T1, MAO-A (Homo sapiens, UniProt P21397).
T1 sequence (P21397 whole entry): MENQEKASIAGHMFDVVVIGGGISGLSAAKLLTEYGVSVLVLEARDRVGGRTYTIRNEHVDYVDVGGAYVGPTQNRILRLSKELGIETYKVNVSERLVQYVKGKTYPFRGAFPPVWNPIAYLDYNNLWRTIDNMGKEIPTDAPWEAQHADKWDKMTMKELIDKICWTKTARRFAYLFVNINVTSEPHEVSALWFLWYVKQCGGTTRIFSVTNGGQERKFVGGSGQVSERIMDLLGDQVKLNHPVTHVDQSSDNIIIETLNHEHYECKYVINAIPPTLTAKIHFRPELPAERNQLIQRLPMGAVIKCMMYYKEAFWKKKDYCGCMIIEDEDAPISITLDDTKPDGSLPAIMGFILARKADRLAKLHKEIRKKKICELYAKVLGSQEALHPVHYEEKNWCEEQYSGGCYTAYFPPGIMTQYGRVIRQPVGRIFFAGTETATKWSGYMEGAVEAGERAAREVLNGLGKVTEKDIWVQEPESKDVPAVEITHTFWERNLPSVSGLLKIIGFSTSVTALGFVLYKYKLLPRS
Description: Inhibition of full length recombinant FLAG-tagged human MAO-A expressed in baculovirus infected sf9 cells at 1 uM preincubated for 15 mins followed by luciferin derived substrate addition measured after 60 mins by luciferase reporter gene assay relative to control. The following applies: probe luciferin derived substrate. On the technique in general: Reporter assays use an easily measured gene product as a stand-in for the process of interest.

For series [3], the target named is T2, MAO-B (Homo sapiens, UniProt P27338).
T2 sequence (P27338 whole entry): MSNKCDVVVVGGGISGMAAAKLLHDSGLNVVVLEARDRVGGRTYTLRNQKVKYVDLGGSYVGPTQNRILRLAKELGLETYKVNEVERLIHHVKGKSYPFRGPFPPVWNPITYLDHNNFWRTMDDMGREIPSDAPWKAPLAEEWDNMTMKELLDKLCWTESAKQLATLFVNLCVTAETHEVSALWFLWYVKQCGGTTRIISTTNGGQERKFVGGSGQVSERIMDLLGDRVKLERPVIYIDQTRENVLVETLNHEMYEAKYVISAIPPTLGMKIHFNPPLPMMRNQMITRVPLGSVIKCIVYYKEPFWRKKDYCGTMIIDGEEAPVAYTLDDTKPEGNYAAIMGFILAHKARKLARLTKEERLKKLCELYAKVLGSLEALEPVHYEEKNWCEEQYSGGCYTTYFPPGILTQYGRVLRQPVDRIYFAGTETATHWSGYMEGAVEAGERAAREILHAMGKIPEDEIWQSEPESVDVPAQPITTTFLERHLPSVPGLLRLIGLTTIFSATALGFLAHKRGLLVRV
The series can be described thus: Inhibition of full length recombinant FLAG-tagged human MAO-B expressed in baculovirus infected sf9 cells at 1 uM preincubated for 15 mins followed by luciferin derived substrate addition measured after 60 mins by luciferase reporter gene assay relative to control. The following applies: probe luciferin derived substrate.

Series [4] has as its target T1, MAO-A. The series can be described thus: Inhibition of full length recombinant FLAG-tagged human MAO-A expressed in baculovirus infected sf9 cells at 0.1 uM preincubated for 15 mins followed by luciferin derived substrate addition measured after 60 mins by luciferase reporter gene assay relative to control. The note with it: probe luciferin derived substrate.
For series [5], the target named is T2, MAO-B. Description: Inhibition of full length recombinant FLAG-tagged human MAO-B expressed in baculovirus infected sf9 cells at 0.1 uM preincubated for 15 mins followed by luciferin derived substrate addition measured after 60 mins by luciferase reporter gene assay relative to control. The note with it: probe luciferin derived substrate.
Series [6] concerns MGC-803. Description: Antiproliferative activity against human MGC803 cells after 72 hrs by MTT assay. The note with it: MGC-803, 72 h.
The test system of series [7] is MGC-803. Description: Antiproliferative activity against LSD1 knock down human MGC803 cells after 72 hrs by MTT assay. The note with it: MGC-803, 72 h. The series is classed as functional, cell-based. (In general: Tetrazolium assays rely on reduction of a dye to a coloured formazan, in cell work by metabolically active cells.)
Series [8] concerns MGC-803. The series can be described thus: Ratio of IC50 for LSD1 knock down human MGC803 cells to IC50 for human MGC803 cells. Type of series: functional.
Series [9] deals with Bromodomain-containing protein 4 (Homo sapiens) (UniProt O60885). Description: Inhibition of BRD4 (unknown origin) at 25 uM relative to control.
Series [10] concerns the target Indoleamine 2,3-dioxygenase 1 (Homo sapiens, UniProt P14902). The series can be described thus: Inhibition of IDO1 (unknown origin).

This note sets out measurements from ChEMBL document CHEMBL4325908, “Ligand-based design, synthesis and biological evaluation of xanthine derivatives as LSD1/KDM1A inhibitors” (Eur J Med Chem, 2019).

Structures are written as SMILES.

Indoleamine 2,3-dioxygenase 1, sequence (P14902 whole entry): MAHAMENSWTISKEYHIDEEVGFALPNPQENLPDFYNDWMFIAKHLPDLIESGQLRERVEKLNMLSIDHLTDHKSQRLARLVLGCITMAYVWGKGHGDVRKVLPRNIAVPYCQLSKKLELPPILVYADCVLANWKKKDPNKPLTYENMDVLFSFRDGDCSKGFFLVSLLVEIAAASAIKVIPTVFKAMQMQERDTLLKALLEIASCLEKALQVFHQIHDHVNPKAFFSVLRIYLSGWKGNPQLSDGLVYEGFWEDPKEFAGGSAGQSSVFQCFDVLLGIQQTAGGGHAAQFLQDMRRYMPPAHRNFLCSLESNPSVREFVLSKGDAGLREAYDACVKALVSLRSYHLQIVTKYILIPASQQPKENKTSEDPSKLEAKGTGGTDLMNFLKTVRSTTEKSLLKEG

Consider `CCCn1c(SCc2cccc(C)c2)nc2c1c(=O)[nH]c(=O)n2C`, for which the IC50 is 8.89 µM in [1], 2.46 µM in series [6], 4.97 µM in series [7] and 96.9 µM in [10]. For the same molecule, the values for the inhibition at 1 h, 1 µM in series [2] and in series [3] were 20% and 61%, respectively. In addition, the results for the inhibition at 1 h, 0.1 µM in series [4] and in series [5] were 9% and 16%, respectively. For the same molecule, the “Ratio IC50” value in series [8] is recorded as 2 - 3. The same molecule yielded an inhibition in series [9] of 52%.
In the case of `CCCn1c(SCc2ccc(Cl)cc2)nc2c1c(=O)[nH]c(=O)n2C`, the IC50 in [1] amounted to 25.7 µM.
As for `CCCn1c(SCc2ccc(F)cc2)nc2c1c(=O)[nH]c(=O)n2C`, the IC50 in [1] came to 14.2 µM; in series [6], 0.687 µM; in series [7], 2.02 µM; in [10], 96.9 µM. Also, the “Ratio IC50” value in series [8] is listed as 2 - 3. Moreover, in [9], the inhibition was 49%.
Consider `CCCn1c(S)nc2c1c(=O)[nH]c(=O)n2C`, for which, in series [1], the IC50 was 6.45 µM.

A word on the IC50: it is the concentration at which inhibition is half-maximal. What is called inhibition is the drop in the measured response relative to a control, in per cent.
